Test results: patent publication US12391685B2, “Inhibitors of RNA-guided nuclease target binding and uses thereof” (THE BROAD INSTITUTE, INC., priority 2018, dated 2025)

Columns and labels:
SpCas9 [1] = target: T1, SpCas9 (Streptococcus pyogenes serotype M1, UniProt Q99ZW2); experiment: In vitro pull-down assay with preformed SpCas9:gRNA complex; format: binding, S. pyogenes; parameters: made in house; host or cells: E. coli Rosetta (DE3)
Protocol: In vitro pull-down assay. Pull-down of SpCas9 by biotinylated compound was performed by incubating a preformed SpCas9:gRNA complex with biotin-compound pre-loaded streptavidin magnetic beads. Initially, a 5 μM biotin compound was incubated with 120 μL streptavidin magnetic bead suspension for 30 min in 1× Cas9 activity buffer (20 mM Tris-HCl buffer, 150 mM KCl, 5 mM MgCl2, 1 mM DTT, pH 7.5). Next, beads were collected and washed with buffer twice and resuspended in 120 μL of 1× Cas9 activity buffer and distributed in 6 different tubes. A 0.3 μM of 480 μL of preformed SpCas9:gRNA complex were added to each tube along with the unlabeled BRD3433 compound (5 μM and 10 μM) in the competition experiment. The tubes were incubated at 4° C. for 12 h before collecting the beads and washed with 500 μL 1× Cas9 activity buffer. The beads were resuspended in 1× SDS gel loading buffer and denatured at 98° C. for 10 min. The samples were analyzed by electrophoresis followed by staining with Coomassie for 15 min before imaging.

SpCas9:gRNA complex = target: T2, SpCas9:gRNA complex (Streptococcus pyogenes serotype M1, UniProt Q99ZW2); experiment: Bio-layer interferometry (BLI), compound-SpCas9 interaction; format: binding, S. pyogenes; settings: 1 μM biotinylated compound on streptavidin sensors, SpCas9:gRNA 0.15-1 μM; read-out: dissociation constant
T2 construct: made in house; host or cells: E. coli Rosetta (DE3)
T2 sequence (Q99ZW2 whole entry, one chain of several): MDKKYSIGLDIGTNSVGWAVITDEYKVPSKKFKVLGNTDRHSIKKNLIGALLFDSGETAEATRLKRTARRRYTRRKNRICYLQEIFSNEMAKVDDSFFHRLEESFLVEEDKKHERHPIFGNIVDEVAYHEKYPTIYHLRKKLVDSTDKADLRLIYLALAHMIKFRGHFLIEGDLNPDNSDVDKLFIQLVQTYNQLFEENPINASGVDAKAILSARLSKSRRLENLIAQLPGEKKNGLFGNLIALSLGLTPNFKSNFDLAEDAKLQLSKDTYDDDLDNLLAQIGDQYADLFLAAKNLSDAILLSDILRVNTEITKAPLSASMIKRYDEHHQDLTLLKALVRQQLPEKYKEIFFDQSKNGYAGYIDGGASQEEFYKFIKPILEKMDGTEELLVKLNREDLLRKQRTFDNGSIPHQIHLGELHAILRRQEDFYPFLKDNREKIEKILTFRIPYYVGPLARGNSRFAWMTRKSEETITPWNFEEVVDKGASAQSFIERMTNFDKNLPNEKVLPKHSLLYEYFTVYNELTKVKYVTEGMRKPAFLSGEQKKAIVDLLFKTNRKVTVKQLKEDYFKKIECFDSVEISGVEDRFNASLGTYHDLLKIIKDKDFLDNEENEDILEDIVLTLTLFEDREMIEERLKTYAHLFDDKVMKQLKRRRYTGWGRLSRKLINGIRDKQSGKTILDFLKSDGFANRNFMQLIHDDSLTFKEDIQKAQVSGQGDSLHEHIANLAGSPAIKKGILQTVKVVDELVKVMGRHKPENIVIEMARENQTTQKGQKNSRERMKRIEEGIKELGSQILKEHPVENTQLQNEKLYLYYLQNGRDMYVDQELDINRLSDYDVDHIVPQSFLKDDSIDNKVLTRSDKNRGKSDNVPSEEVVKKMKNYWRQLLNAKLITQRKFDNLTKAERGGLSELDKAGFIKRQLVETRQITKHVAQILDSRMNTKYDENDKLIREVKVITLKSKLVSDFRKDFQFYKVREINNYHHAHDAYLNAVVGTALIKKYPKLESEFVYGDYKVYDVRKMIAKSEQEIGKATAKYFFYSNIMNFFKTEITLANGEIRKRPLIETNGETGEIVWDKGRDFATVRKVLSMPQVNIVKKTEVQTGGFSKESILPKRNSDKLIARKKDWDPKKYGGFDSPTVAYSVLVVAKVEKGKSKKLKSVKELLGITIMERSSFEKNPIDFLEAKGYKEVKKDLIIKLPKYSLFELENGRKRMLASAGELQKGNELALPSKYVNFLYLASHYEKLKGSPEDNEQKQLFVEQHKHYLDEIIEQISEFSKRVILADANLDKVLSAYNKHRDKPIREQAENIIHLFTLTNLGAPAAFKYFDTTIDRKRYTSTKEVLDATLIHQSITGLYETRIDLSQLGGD
Protocol: Compound-SpCas9 interaction in BLI. The experiments were performed in a 96-well format with 180 μL reaction volume using […] and streptavidin sensors. 1 μM of the biotinylated compound was loaded onto the sensors for 180 s in 20 mM Tris buffer (100 mM KCl, 5 mM MgCl2, 1 mM DTT, 0.01% Tween, pH 7.4). Compound-loaded sensors were then allowed to associate with different concentrations of the SpCas9:gRNA complex (0.15-1 μM) for 300 s, followed by dissociation in reaction buffer. The reference sensor was loaded with compound and allowed to associate and dissociate in reaction buffer alone. Response curves were fitted with a 2:1 stoichiometric model and a global fit steady-state analysis was performed using manufacturer's protocol. Experiments were performed in triplicate.
Competition experiments were performed using biotin-linker fragment. In this experiment, streptavidin sensors were pre-incubated with 10 μM of biotin-linker for 10 min before dipping into a solution of either 1 μM BRD7087-biotin or reaction buffer alone. Sensors were then allowed to associate with different concentration of SpCas9:gRNA complex (0.15-1 μM) or buffer alone.

SpCas9 [2] = target: T1, SpCas9; experiment: NHEJ assay in HEK293T cells; format: cell-based, S. pyogenes; settings: 2-10 μM, 24 h
Protocol: NHEJ assay. Approximately 8,000 cells/well were seeded in a 96-well plate 24 h before transient transfection with a total 100 ng of DN66 (mCherry—TAG—GFP reporter) and DN78 (SpCas9 and gRNA) plasmids (1:1) using Lipofectamine 2000 (Life Technologies) (Nguyen et al., 2016b). Transfected cells were incubated with the indicated amount of small molecule or DMSO for 24 h. Cells were then fixed using 4% paraformaldehyde and imaged with the HCS NuclearMask™ Blue Stain (Life Technologies) as the nuclear counter-staining agent. Imaging was performed with an ImageXpress Micro automated microscope (Molecular Devices) at 4× magnification under three excitation channels (blue, green and red) with 9 acquisition sites per well. Images were analyzed in the MetaXpress software to determine the % NHEJ and the data were plotted using GraphPad Prism 6. The Z′-value was calculated following the formula: Z′=1−(3(σ1+σ2))/(|μ1−μ2|) where σ1 and σ2 are the standard deviations of DN66 transfected wells and (DN66+DN78) transfected wells respectively. μ1 and μ2 are the mean % GFP cell population for DN66 transfected wells and (DN66+DN78) transfected wells respectively.

SpCas9 [3] = target: T1, SpCas9; experiment: eGFP-disruption assay in U2OS.eGFP.PEST cells; format: cell-based, S. pyogenes; parameters: host or cells: U2OS.eGFP.PEST; settings: U2OS.eGFP.PEST cells
Protocol: SpCas9 nuclease activity in eGFP-disruption assay. Approximately 200,000 U2OS.eGFP-PEST cells were nucleofected following two different methods either by nucleofecting plasmids or RNP using the SE Cell Line 4D-Nucleofector™ X Kit (Lonza) according to the manufacturer's protocol. In the plasmid nucleofection method, cells were nucleofected either with 440 ng of SpCas9 (Addgene Plasmid #43861) or 400 ng of SpCas9 along with 40 ng of sgRNA (pFYF1320 eGFP Site #1, Addgene Plasmid #47511). Cells nucleofected only with SpCas9-expressing plasmid were used as the transfection control. In the RNP nucleofection method, either […] SpCas9 or 20 pmol preformed SpCas9:gRNA (eGFP Site #1) complex were nucleofected. Approximately 20,000 transfected cells/well were plated in 4 replicates in a 96-well plate (Corning® 3904). Cells were incubated with the indicated amount of compound or DMSO for 24 h post transfection. A DMSO solution of compound (20 mM) was resuspended in the 10% FBS containing growth media and thoroughly mixed before adding to the cells. Cells were then fixed using 4% paraformaldehyde and imaged with the HCS NuclearMask™ Blue Stain (Life Technologies) as the nuclear counter-staining agent. Imaging was performed with an ImageXpress Micro automated microscope (Molecular Devices) at 10× magnification under three excitation channels (blue, green and red) acquiring nine sites per well. Images were analyzed using MetaXpress software and data were plotted using GraphPad Prism 6.
The Z′-value was calculated using the equation (1), where σ1 and σ2 are the standard deviations of DMSO control and SpCas9:gRNA control respectively. μ1 and μ2 are the mean % GFP^− cell population for DMSO control and SpCas9:gRNA control, respectively.

[4] = tested on: U2OS.eGFP.PEST cells and HEK293T cells; experiment: Cell viability (ATP content); settings: 5-20 μM, 24 h
SpCas9 [5] = target: T1, SpCas9; experiment: mKate2-disruption assay in HEK293T cells; format: cell-based, S. pyogenes; settings: 1.5-5 μM, 24 h
Protocol: mKate2-disruption assay. Approximately 8,000 cells/well were seeded in a 96-well plate 24 h before transient transfection with 100 ng of either CgRNA (Addgene Plasmid #64955) or T1gRNA (Addgene Plasmid #62717) plasmids using Lipofectamine 2000 (Life Technologies). Transfected cells were allowed to grow in the indicated amount of small molecule or DMSO for 24 h. Cells were then fixed using 4% paraformaldehyde and imaged with the HCS NuclearMask™ Blue Stain (Life Technologies) as the nuclear counter-staining agent. Imaging was performed with an ImageXpress Micro automated microscope (Molecular Devices) at 20× magnification under two excitation channels (blue and red) with 9 acquisition sites per well. Images were analyzed using the MetaXpress software to determine the % mKate2 positive cells and data was plotted using GraphPad Prism 6. The Z′-value was calculated following the formula: Z′=1−(3(σ1+σ2))/(|μ1−μ2|) where σ1 and σ2 are the standard deviations of CgRNA transfected wells and T1gRNA transfected wells respectively. μ1 and μ2 are the mean % RFP^+ cell population for CgRNA transfected wells and T1gRNA transfected wells, respectively.

[6] = target: T3, dCas9-based transcription-activation complex (Streptococcus pyogenes serotype M1, UniProt Q99ZW2, D10A, form not given); experiment: dCas9-based transcription activation of HBG1 in HEK293FT cells (RT-qPCR); format: cell-based, S. pyogenes; settings: 20 μM
T3 construct: "dSpCas9|Feng Zhang lab|NA"; The MS2-p65-HSF1(-GFP) effector is a separate chain recruited through MS2 aptamers in the sgRNA
T3 sequence (Q99ZW2 whole entry, form open, one chain of several, change not shown): as the sequence (Q99ZW2 whole entry, one chain of several) above
Protocol: Transcription activation experiments and quantitative RT-PCR analyses. HEK293FT cells were maintained in high glucose DMEM with glutamax (Life Technologies) and supplemented with 10% FBS (Life Technologies), 1% penicillin-streptomycin (Life Technologies) and 1 mM sodium pyruvate (Life Technologies). For transcription activation experiments, 20,000 cells/well were plated in a poly D-lysine-coated 96-well plate. The cells were transiently transfected with a 1:1:1 mass ratio of the dCas9 plasmid, MS2-P65-HSF1 effector plasmid and the sgRNA plasmid targeting the HBG1 gene or an RFP control plasmid. A total of 0.3 μg plasmid DNA was transfected using Lipofectamine 2000 (Life Technologies) according to manufacturer's protocol. Immediately after transfection, the cells were treated with an appropriate dose of the small-molecule inhibitors. A DMSO solution of compound (20 mM) was resuspended in the 10% FBS containing growth media and thoroughly mixedbefore adding to the cells. After 48 h the cells were lysed and 5 μL of the cell lysate was used to perform reverse transcription using the RevertAid RT Reverse Transcription Kit (Thermo Fischer Scientific) as described by Joung J. et al. qPCR reactions were performed to quantify RNA expression using the TaqMan probes (Life Technologies, HBG1/HBG2: Hs00361131_g1, ACTB: Hs01060665_g1) and TaqMan Fast Advanced Master Mix (Life Technologies) in 5 μL multiplexed reactions and 384-well format using the LightCycler 480 Instrument II (Roche). For each sample, four technical replicates were performed. Data were analyzed using the LightCycler 480 software (Roche) by the ΔΔCt method: Ct values for the gene of interest (HBG1) were normalized to Ct values for the housekeeping gene (ACTB), and fold-changes in the expression level of gene of interest were normalized to RFP-transfected control. The data is reported as mean±S.E.M. for technical replicates.

SpCas9 [7] = target: T1, SpCas9; experiment: In vitro pulldown from WM793-SpCas9 cell lysate; format: binding, S. pyogenes; parameters: host or cells: U2OS.eGFP.PEST; settings: streptavidin magnetic beads, 12 h

T1 sequence (Q99ZW2 whole entry): as the sequence (Q99ZW2 whole entry, one chain of several) above

Structure (SMILES): COc1cccc(-c2ccc3c(c2)[C@H]2[C@H](CCN2C(=O)Cc2ccncc2)[C@H](CNC(=O)CCOCCOCCOCCNC(=O)CCCC[C@@H]2SC[C@@H]4NC(=O)N[C@@H]42)N3C)c1 [biotinylated BRD3433, N-(1-((3aS,4R,9bR)-8-(3-methoxyphenyl)-5-methyl-1-(2-(pyridin-4-yl)acetyl)-2,3,3a,4,5,9b-hexahydro-1H-pyrrolo[3,2-c]quinolin-4-yl)-3-oxo-6,9,12-trioxa-2-azatetradecan-14-yl)-5-((3aS,4S,6aR)-2-oxohexahydro-1H-thieno[3,4-d]imidazol-4-y1) pentanamide]
- pull-down of SpCas9 (gel electrophoresis) (SpCas9 [1]): enrichment of SpCas9 in the eluent

Structure (SMILES): O=C(CCCC[C@@H]1SC[C@@H]2NC(=O)N[C@@H]21)NCCOCCOCCOCCC(=O)Nc1cccc(-c2ccc3c(c2)[C@H]2[C@H](CCN2Cc2ccncc2)[C@@H](CO)N3)c1 [BRD3539, N-(2-(2-(2-(3-((3-((3aR,4S,9bR)-4-(Hydroxymethyl)-1-(pyridin-4-ylmethyl)-2,3,3a,4,5,9b-hexahydro-1H-pyrrolo[3,2-c]quinolin-8-yl)phenyl)amino)-3-oxopropoxy)ethoxy)ethoxy)ethyl)-5-((3aS,4S,6aR)-2-oxohexahydro-1H-thieno[3,4-d]imidazol-4-yl) pentanamide]
- Kd (SpCas9:gRNA complex): 0.7 µM

Structure (SMILES): COc1ccc(-c2ccc3c(c2)[C@H]2[C@H](CCN2Cc2ccncc2)[C@@H](CO)N3)cc1 [BRD5779, ((3aR,4S,9bR)-8-(4-Methoxyphenyl)-1-(pyridin-4-ylmethyl)-2,3,3a,4,5,9b-hexahydro-1H-pyrrolo[3,2-c]quinolin-4-yl) methanol]
- inhibition of SpCas9 in the NHEJ assay (in words) (SpCas9 [2]): dose-dependent inhibition
- inhibition of SpCas9 in the eGFP-disruption assay (in words) (SpCas9 [3]): dose-dependent inhibition
- cytotoxicity (in words) [4]: non-cytotoxic
- inhibition of SpCas9 in the mKate2 disruption assay (in words) (SpCas9 [5]): dose-dependent inhibition
- inhibition of transcriptional activation [6]: ~60%

Structure (SMILES): Cc1ccc(S(=O)(=O)N2CC[C@@H]3[C@H](CNC(=O)CCOCCOCCOCCNC(=O)CCCC[C@@H]4SC[C@@H]5NC(=O)N[C@@H]54)Nc4ccc(-c5ccccc5F)cc4[C@@H]32)cc1 [biotinylated BRD0539, N-(1-((3aR,4R,9bR)-8-(2-fluorophenyl)-1-tosyl-2,3,3a,4,5,9b-hexahydro-1H-pyrrolo[3,2-c]quinolin-4-yl)-3-oxo-6,9,12-trioxa-2-azatetradecan-14-yl)-5-((3aS,4S,6aR)-2-oxohexahydro-1H-thieno[3,4-d]imidazol-4-yl) pentanamide]
- pulldown of SpCas9 from WM793-SpCas9 cell lysate (SpCas9 [7]): able to pulldown SpCas9
